Laboratory results: PubChem BioAssay AID1963834 (Molecular Pharmacology Branch, DTP, NCI, 2024)

System: 873145-292-R-J1-PDC complex spheroid viability
Assay: Anticancer human tumor 873145-292-R-J1-PDC patient-derived renal clear cell carcinoma cell line growth inhibition [POLQ]
Details: for IC50: curve of first compound; for viability, T/C: stronger effect = lower value
Summary of the method: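 Three-cell-type spheroids modelling solid tumor plus stroma served as the readout system; POL inhibitors were tested individually and in combination, concentration ranges set by clinical Cmax where known.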

[1] = second compound 0.0316 µM, first compound 0.0316 µM
[2] = second compound 0.0316 µM, first compound 0.1 µM
[3] = second compound 0.0316 µM, first compound 0.316 µM
[4] = second compound 0.0316 µM, first compound 1 µM
[5] = second compound 0.0316 µM, first compound 3.16 µM
[6] = second compound 0.0316 µM, first compound 10 µM
[7] = second compound 0.1 µM, first compound 0.0316 µM
[8] = second compound 0.1 µM, first compound 0.1 µM
[9] = second compound 0.1 µM, first compound 0.316 µM
[10] = second compound 0.1 µM, first compound 1 µM
[11] = second compound 0.1 µM, first compound 3.16 µM
[12] = second compound 0.1 µM, first compound 10 µM
[13] = second compound 0.316 µM, first compound 0.0316 µM
[14] = second compound 0.316 µM, first compound 0.1 µM
[15] = second compound 0.316 µM, first compound 0.316 µM
[16] = second compound 0.316 µM, first compound 1 µM
[17] = second compound 0.316 µM, first compound 3.16 µM
[18] = second compound 0.316 µM, first compound 10 µM
[19] = second compound 1 µM, first compound 0.0316 µM
[20] = second compound 1 µM, first compound 0.1 µM
[21] = second compound 1 µM, first compound 0.316 µM
[22] = second compound 1 µM, first compound 1 µM
[23] = second compound 1 µM, first compound 3.16 µM
[24] = second compound 1 µM, first compound 10 µM
[25] = second compound 3.16 µM, first compound 0.0316 µM
[26] = second compound 3.16 µM, first compound 0.1 µM
[27] = second compound 3.16 µM, first compound 0.316 µM
[28] = second compound 3.16 µM, first compound 1 µM
[29] = second compound 3.16 µM, first compound 3.16 µM
[30] = second compound 3.16 µM, first compound 10 µM
[31] = second compound 10 µM, first compound 0.0316 µM
[32] = second compound 10 µM, first compound 0.1 µM
[33] = second compound 10 µM, first compound 0.316 µM
[34] = second compound 10 µM, first compound 1 µM
[35] = second compound 10 µM, first compound 3.16 µM
[36] = second compound 10 µM, first compound 10 µM
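Further: spheroids exposed to compounds for 7 days before viability readout.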
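Wherever viability, T/C is given: luminescence signal used as surrogate for viable cell content; 100% = DMSO vehicle control viability.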

C#Cc1c(F)ccc2cc(O)cc(-c3ncc4c(N5CC6CCC(C5)N6)nc(OCC56CCCN5CC(F)C6)nc4c3F)c12 (centres undefined) + Nc1ccc(C#CCN(C(=O)Cc2ncc(C(F)(F)F)cc2C(F)(F)F)c2ccc(F)cc2)nn1
IC50 (second compound 0.0316 µM): > 10 µM
IC50 (second compound 0.1 µM): > 10 µM
IC50 (second compound 0.316 µM): > 10 µM
IC50 (second compound 1 µM): > 10 µM
IC50 (second compound 3.16 µM): > 10 µM
IC50 (second compound 10 µM): > 10 µM
viability, T/C [1]: 102%
viability, T/C [2]: 103%
viability, T/C [3]: 106%
viability, T/C [4]: 99.4%
viability, T/C [5]: 105%
viability, T/C [6]: 97.1%
viability, T/C [7]: 115%
viability, T/C [8]: 110%
viability, T/C [9]: 96.6%
viability, T/C [10]: 108%
viability, T/C [11]: 101%
viability, T/C [12]: 91.9%
viability, T/C [13]: 101%
viability, T/C [14]: 106%
viability, T/C [15]: 84%
viability, T/C [16]: 104%
viability, T/C [17]: 98.8%
viability, T/C [18]: 86.7%
viability, T/C [19]: 108%
viability, T/C [20]: 93.8%
viability, T/C [21]: 111%
viability, T/C [22]: 97.9%
viability, T/C [23]: 104%
viability, T/C [24]: 95.4%
viability, T/C [25]: 106%
viability, T/C [26]: 100%
viability, T/C [27]: 107%
viability, T/C [28]: 106%
viability, T/C [29]: 90.7%
viability, T/C [30]: 101%
viability, T/C [31]: 108%
viability, T/C [32]: 98.7%
viability, T/C [33]: 104%
viability, T/C [34]: 98.2%
viability, T/C [35]: 109%
viability, T/C [36]: 105%

C=CC(=O)N1CCN(c2nc(=O)n(-c3c(C)ccnc3C(C)C)c3nc(-c4c(O)cccc4F)c(F)cc23)C(C)C1 (centres undefined) + Nc1ccc(C#CCN(C(=O)Cc2ncc(C(F)(F)F)cc2C(F)(F)F)c2ccc(F)cc2)nn1
IC50 (second compound 0.0316 µM): > 10 µM
IC50 (second compound 0.1 µM): > 10 µM
IC50 (second compound 0.316 µM): > 10 µM
IC50 (second compound 1 µM): > 10 µM
IC50 (second compound 3.16 µM): > 10 µM
IC50 (second compound 10 µM): > 10 µM
viability, T/C [1]: 112%
viability, T/C [2]: 105%
viability, T/C [3]: 106%
viability, T/C [4]: 120%
viability, T/C [5]: 132%
viability, T/C [6]: 134%
viability, T/C [7]: 111%
viability, T/C [8]: 110%
viability, T/C [9]: 117%
viability, T/C [10]: 124%
viability, T/C [11]: 119%
viability, T/C [12]: 128%
viability, T/C [13]: 116%
viability, T/C [14]: 117%
viability, T/C [15]: 103%
viability, T/C [16]: 126%
viability, T/C [17]: 135%
viability, T/C [18]: 123%
viability, T/C [19]: 107%
viability, T/C [20]: 110%
viability, T/C [21]: 107%
viability, T/C [22]: 129%
viability, T/C [23]: 136%
viability, T/C [24]: 126%
viability, T/C [25]: 112%
viability, T/C [26]: 116%
viability, T/C [27]: 113%
viability, T/C [28]: 131%
viability, T/C [29]: 135%
viability, T/C [30]: 139%
viability, T/C [31]: 126%
viability, T/C [32]: 113%
viability, T/C [33]: 119%
viability, T/C [34]: 132%
viability, T/C [35]: 134%
viability, T/C [36]: 142%
